Measured values published in patent US20130310326A1, “Histatin for Corneal Wound Healing and Ocular Surface Disease” (RAPID PATHOGEN SCREENING, INC., priority 2012, published 2013).

Tested on: corneal wounds (epithelial defects in the right eye)
Test: Corneal wound healing in rabbits (epithelial defect, fluorescein staining, computerized area determination)
Type: in vivo, New Zealand White rabbits
Conditions: for Percentage of 1 hour post wound size: approximate, without standard deviation
Procedure: The study disclosed herein evaluates and quantifies the wound healing effects of histatins on the ocular surface of New Zealand White rabbits.
Epithelial defects are created in the right eye (oculus dexter, OD) of 12 New Zealand White rabbits. Due to animal regulations, bilateral wounding is not permitted. After the epithelial defects are made, the rabbits are randomized into treatment groups. Two (2) groups are treated with different cyclized histatin concentrations: 0.1 μg/ml and 10 μg/ml dissolved into an ophthalmic artificial tear preparation and delivered to the rabbits as an eye drop three times daily. Histatins known in the art, including, but not limited to, amino acid SEQ. ID. NOs. 1 through 33, which include Hst-1 (SEQ. ID. NO. 4), Hst-2 (SEQ. ID. NO. 5), Hst-3 (SEQ. ID. NO. 6), Hst-5 (SEQ. ID. NO. 30), and sortase cyclized histatin (SEQ. ID. NO. 33), may be used in these studies or in treatment protocols. […] This control group should receive the same vehicle identical to the other two groups but without histatin. An over-the-counter artificial tear preferably serves as the vehicle. The initial study included four (4) animals/group in three (3) groups, for a total of twelve rabbits.
Each rabbit group is preferably given moxifloxicin treatment to prevent infection.
The corneal wounds are then evaluated daily for the corneal wound healing abilities of histatin via fluorescein staining, fluorescent slit lamp biomicrophotography and computerized area determination. Evaluators are masked to the therapeutic treatment given to the rabbits. After healing, two (2) animals from each group are euthanized, and the corneas collected for histological processing (H&E staining with subsequent evaluation by veterinary histopathologist). The decision to perform histopathologic analysis after tissue procurement is made only if there is proven difference in healing between the different treatment groups and the controls. At study termination (study preferably continues for seven days), the remaining animals are euthanized.
The histatin used in this study was cyclized histatin 1. The histatin 1 used was a sortase cyclized histatin with amino acid SEQ. ID. NO.

Substance: cyclo(DNLPETGGDSHEKRHHGYRRKFHEKHHSHREFPFYGDYGSNYLY) [cyclized histatin 1]
- corneal wound size (0.1 μg/ml eye drop three times daily, 0 hours post wound): 112.7 ± 37.8 mm^2
- corneal wound size (0.1 μg/ml eye drop three times daily, 6 hours post wound): 96.2 ± 13.6 mm^2
- corneal wound size (0.1 μg/ml eye drop three times daily, 24 hours post wound): 77.5 ± 25.0 mm^2
- corneal wound size (0.1 μg/ml eye drop three times daily, 30 hours post wound): 48.8 ± 8.0 mm^2
- corneal wound size (0.1 μg/ml eye drop three times daily, 48 hours post wound): 2.7 ± 3.1 mm^2
- corneal wound size (0.1 μg/ml eye drop three times daily, 54 hours post wound): 0.00 ± 0.00 mm^2
- corneal wound size (0.1 μg/ml eye drop three times daily, 72 hours post wound): 0.00 ± 0.00 mm^2
- healing activity of corneal wounds versus control (0.1 μg/ml or 10 μg/ml versus vehicle control, rabbits): significant dose dependent accelerated healing activity
- Percentage of 1 hour post wound size (0.1 ug/ml, 0 hours post wound): 100%
- Percentage of 1 hour post wound size (0.1 ug/ml, 6 hours post wound): 85%
- Percentage of 1 hour post wound size (0.1 ug/ml, 24 hours post wound): 69%
- Percentage of 1 hour post wound size (0.1 ug/ml, 30 hours post wound): 43%
- Percentage of 1 hour post wound size (0.1 ug/ml, 48 hours post wound): 2%
- Percentage of 1 hour post wound size (0.1 ug/ml, 54 hours post wound): 0%
- Percentage of 1 hour post wound size (0.1 ug/ml, 72 hours post wound): 0%
- corneal wound size (10 μg/ml eye drop three times daily, 0 hours post wound): 88.4 ± 31.6 mm^2
- corneal wound size (10 μg/ml eye drop three times daily, 6 hours post wound): 74.0 ± 14.7 mm^2
- corneal wound size (10 μg/ml eye drop three times daily, 24 hours post wound): 51.4 ± 9.3 mm^2
- corneal wound size (10 μg/ml eye drop three times daily, 30 hours post wound): 37.7 ± 9.4 mm^2
- corneal wound size (10 μg/ml eye drop three times daily, 48 hours post wound): 0.00 ± 0.07 mm^2
- corneal wound size (10 μg/ml eye drop three times daily, 54 hours post wound): 0.00 ± 0.00 mm^2
- corneal wound size (10 μg/ml eye drop three times daily, 72 hours post wound): 0.00 ± 0.00 mm^2
- Percentage of 1 hour post wound size (10 ug/ml, 0 hours post wound): 100%
- Percentage of 1 hour post wound size (10 ug/ml, 6 hours post wound): 84%
- Percentage of 1 hour post wound size (10 ug/ml, 24 hours post wound): 58%
- Percentage of 1 hour post wound size (10 ug/ml, 30 hours post wound): 43%
- Percentage of 1 hour post wound size (10 ug/ml, 48 hours post wound): 0%
- Percentage of 1 hour post wound size (10 ug/ml, 54 hours post wound): 0%
- Percentage of 1 hour post wound size (10 ug/ml, 72 hours post wound): 0%
